Experimental data reported in the supplement of paper PMC10307832.

Tests used:
Assay in all cases: relative viability (nuclei count vs DMSO), 5 days (fraction); higher = more cells survive
[1] = compound: C1COCCN1C2=NC(=NC3=C2OC4=C3C=CC=N4)C5=CC(=CC=C5)NC(=O)C6=CN=C(C=C6)N + NC(=O)Nc1cc(-c2cccc(F)c2)sc1C(=O)N[C@H]1CCCNC1 [AZD7762] (partner 0.2 µM)
Procedure, shortened: (§1)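 Dosing by pin tool came one day after lung cancer cell lines were seeded in 1536-well plates, using either one drug or a fixed anchor-drug dose plus five library-drug doses (not always all listed) in √10 steps. After 5 days, nuclei were counted on 4× images. Relative viability is treated-well nuclei count divided by vehicle-well nuclei count, and values are medians of duplicate plates.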

Entinostat + Trametinib = compound: Nc1ccccc1NC(=O)c1ccc(CNC(=O)OCc2cccnc2)cc1 [Entinostat] + CC(=O)Nc1cccc(-n2c(=O)n(C3CC3)c(=O)c3c(Nc4ccc(I)cc4F)n(C)c(=O)c(C)c32)c1 [Trametinib] (partner 0.02 µM)
Procedure, shortened: as §1

Entinostat + Olaparib = compound: Nc1ccccc1NC(=O)c1ccc(CNC(=O)OCc2cccnc2)cc1 [Entinostat] + O=C(c1cc(Cc2n[nH]c(=O)c3ccccc23)ccc1F)N1CCN(C(=O)C2CC2)CC1 [Olaparib] (partner 8 µM)
Procedure, shortened: as §1

[2] = compound: C1COCCN1C2=NC(=NC3=C2OC4=C3C=CC=N4)C5=CC(=CC=C5)NC(=O)C6=CN=C(C=C6)N + CS(=O)(=O)CCNCc1ccc(-c2ccc3ncnc(Nc4ccc(OCc5cccc(F)c5)c(Cl)c4)c3c2)o1 [Lapatinib] (partner 2 µM)
Procedure, shortened: as §1

Row | Cell Line | relative viability ([1]; first compound 0.02 µM) | relative viability ([1]; first compound 0.06325 µM) | relative viability ([1]; first compound 0.2 µM) | relative viability ([1]; first compound 0.6325 µM) | relative viability ([1]; first compound 2 µM) | relative viability (Entinostat + Trametinib; first compound 0.02 µM) | relative viability (Entinostat + Trametinib; first compound 0.06325 µM) | relative viability (Entinostat + Trametinib; first compound 0.2 µM) | relative viability (Entinostat + Trametinib; first compound 0.6325 µM) | relative viability (Entinostat + Trametinib; first compound 2 µM) | relative viability (Entinostat + Olaparib; first compound 0.02 µM) | relative viability (Entinostat + Olaparib; first compound 0.06325 µM) | relative viability (Entinostat + Olaparib; first compound 0.2 µM) | relative viability (Entinostat + Olaparib; first compound 0.6325 µM) | relative viability (Entinostat + Olaparib; first compound 2 µM) | relative viability ([2]; first compound 0.02 µM) | relative viability ([2]; first compound 0.06325 µM) | relative viability ([2]; first compound 0.2 µM) | relative viability ([2]; first compound 0.6325 µM) | relative viability ([2]; first compound 2 µM)
1 | NCI-H1648 | 0.619 | 0.747 | 0.641 | 0.698 | 0.539 | 0.507 | 0.682 | 0.436 | 0.653 | 0.472 | 0.769 | 0.624 | 0.673 | 0.615 | 0.512 | – | – | – | – | –
2 | NCI-H1650 | – | – | – | – | – | 0.594 | 0.585 | 0.507 | 0.372 | 0.376 | 0.828 | 0.967 | 0.819 | 0.527 | 0.363 | 0.791 | 0.792 | 0.7 | 0.775 | 0.613
3 | NCI-H1703 | 0.143 | 0.146 | 0.127 | 0.108 | 0.124 | – | – | – | – | – | 0.388 | 0.435 | 0.545 | 0.7 | 0.454 | 1.17 | 1.21 | 0.761 | 0.798 | 0.308
4 | NCI-H2009 | – | – | – | – | – | 0.312 | 0.354 | 0.325 | 0.294 | 0.238 | 0.673 | 0.695 | 0.639 | 0.486 | 0.434 | 0.933 | 0.944 | 0.889 | 0.89 | 0.792
5 | NCI-H2023 | – | – | – | – | – | 0.467 | 0.473 | 0.226 | 0.127 | 0.0998 | 0.327 | 0.253 | 0.185 | 0.0826 | 0.0815 | 0.759 | 0.798 | 0.618 | 0.565 | 0.471
6 | NCI-H2228 | – | – | – | – | – | 0.466 | 0.587 | 0.524 | 0.224 | 0.183 | 0.633 | 0.749 | 0.613 | 0.254 | 0.176 | 1.1 | 1.2 | 0.89 | 1.06 | 0.604
7 | NCI-H2342 | 0.498 | 0.525 | 0.476 | 0.565 | 0.463 | 0.855 | 0.659 | 0.713 | 0.605 | 0.673 | 0.401 | 0.477 | 0.447 | 0.356 | 0.308 | – | – | – | – | –
8 | SK-LU-1 | – | – | – | – | – | 0.445 | 0.617 | 0.463 | 0.361 | 0.402 | 0.469 | 0.497 | 0.394 | 0.313 | 0.288 | 1.02 | 1.01 | 0.786 | 0.824 | 0.33
9 | SK-MES-1 | – | – | – | – | – | 0.553 | 0.693 | 0.865 | 0.83 | 0.512 | 0.576 | 0.646 | 0.801 | 0.596 | 0.467 | 0.455 | 0.492 | 0.431 | 0.424 | 0.312
10 | SW 900 | 0.63 | 0.606 | 0.505 | 0.522 | 0.429 | 0.793 | 0.752 | 0.614 | 0.766 | 0.347 | 0.857 | 0.815 | 0.902 | 0.616 | 0.355 | – | – | – | – | –
11 | SW 1573 | – | – | – | – | – | 0.652 | 0.722 | 0.733 | 0.554 | 0.431 | 0.415 | 0.563 | 0.582 | 0.468 | 0.261 | 1.2 | 1.13 | 0.932 | 1.1 | 0.896
